Measurements: US20240091267A1, “PRE-TREATMENT OF MSC WITH PPARB/DELTA AGONIST FOR TREATMENT OF ISCHEMIA-REPERFUSION INJURY” (Universite de Montpellier, priority 2020, published 2024)
Read-outs that look alike come from different tables or passages of the source.

How the values were obtained:
[1] = 3 mg/kg/day, mice; cited from earlier work
[2] = test system: isolated perfused hearts from C57B16 mice; assay: Ex vivo Langendorff ischemia-reperfusion, infarct size, effect of preconditioning duration (Example 3); set-up: species or system mouse (C57BL/6); settings: 4.10^5 cells/heart; for Decrease in infarct size: vs IR
[3] = 3 mg/kg/day, rats; cited from earlier work
[4] = test system: cardiomyoblast cell line H9c2; settings: H9c2 cardiomyoblasts; cited from earlier work
[5] = test system: H9c2 cardiomyocytes; assay: Transwell co-culture of MSC with H9c2 exposed to H2O2, specific DNA fragmentation in H9c2; assay type: cell-based, rattus norvegicus; settings: vs naive MSC
Protocol: FIG. 7: Increased anti-apoptotic effects of PPARβ/δ-primed MSC on cardiomyocytes. (A) After 24 hours of MSC pharmacological preconditioning using PPARβ/δ agonist, cells were co-cultured using transwells (upper chamber) with H9c2 (lower chamber). Both cultures were exposed to 4 hours of 350 μM of H2O2 in minimal medium (serum deprivation). At the end of the protocol, specific DNA fragmentation was quantified in H9c2 cells and values were compared with those obtained for co-cultures with naive MSC or MSC pre-treated with PPARβ/δ antagonists (GSK0660 or GSK03787) and exposed to 350 H2O2μM (B, C, D) Scatter dot plot and bars were presented for specific DNA fragmentation quantified in H9c2 at the end of the protocols. Data (mean±SD for each group of treatment) were normalized by values obtained with naive MSC/H2O2 and compared using Kruskal-Wallis (Dunn's post hoc test). (B): data were obtained using the condition 1 protocol. (C): the condition 2 protocol P was followed and p value was noted **** for p<0.0001 (MSC, n=16 independent cultures vs MSC/H2O2, n=18). For the data obtained with condition 3 protocol (D), p value was noted * for p=0.0436 (MSC+1 μM GSK0660/H2O2, n=6 vs MSC/H2O2, n=10).
H9c2, rattus norvegicus cardiomyocytes, were cultured in Dulbecco's modified Eagle's medium (DMEM), supplemented with 10% fetal bovine serum (FBS), 100 Units/mL penicillin, and 100 μg/mL streptomycin. To induce apoptosis, H9c2 were cultured in a minimal medium (without FBS) containing 350 μM of H2O2 during 4 hours. In order to evaluate the effect of MSCs on cardiomyocytes, a co-culture assay was designed using the transwell system to avoid cell-cell contact. 15,000 cardiomyocytes (lower part) were plated per well of a 12-well dish with or 15,000 MSC (upper part) in presence of 350 OA of H2O2. Two different protocols of co-culture were performed. In protocol 1, H9c2 and co-cultured MSC were exposed to H2O2(with serum deprivation). In protocol 2, H9c2 were exposed to H2O2 in minimal medium during 4 hours and after a wash, cells were co-cultured in complete medium with MSC. In protocol 3, H9c2 were cultured in presence of H2O2 during 4 hours in regular medium deprived in serum, which was continued for an extra 1 hour. Then the co-culture of H9c2 with MSC was performed in complete medium for 1 hour. At the end of all protocols, H9c2 were recovered for apoptosis and RT-qPCR analysis.
DNA fragmentation was quantified in vitro on cell lysates with an enzyme-linked immunosorbent assay kit (Cell Death ELISA; Roche Diagnostics) designed to measure of histone-complexed DNA fragments (mono- and oligonucleosomes) out of the cytoplasm of cells after the induction of apoptosis.
To determine the role of PPARβ/δ on MSC-induced protective effect on cardiomyocytes we designed and developed three protocols in order to mimic the stress received by MSC when transplanted into infarcted tissues. The first protocol consisted in co-culturing naive or primed MSC with H9c2 exposed to 350 μM of H2O2 for 4 hours using transwell. The second protocol consisted in exposing […] μM of H2O2 for 4 hours before to co-culture them with naive or primed MSC in a complete medium. The third protocol consisted in exposing H9c2 to 350 μM of H2O2 for 4 hours followed by serum deprivation for 1 hour before to co-culture them with naive or primed MSC in a complete medium (FIG. 7A).

| Structure (SMILES) | Carcinogenicity [1] | Infarct size, mean value ([2]; MSC preconditioned 24 h (1-day) with 0.1 μM, n=7) | Decrease in infarct size ([2]; MSC preconditioned 24 h with 0.1 μM) [%] | Decrease in infarct size ([2]; MSC preconditioned 4 days (96 h) with 0.1 μM) [%] | Infarct size, mean value ([2]; MSC preconditioned 4 days with 0.1 μM, n=8) [%] | Carcinogenicity [3] | Protection from H2O2-induced cell death [4] | Specific DNA fragmentation in H9c2 (anti-apoptotic effect of MSC) ([5]; protocol 1: MSC pretreated 24 h with 1 μM, co-cultured with H9c2 under 350 μM H2O2 4 h) | Specific DNA fragmentation in H9c2 (anti-apoptotic effect of MSC) ([5]; protocol 2: H9c2 exposed to 350 μM H2O2 4 h, then co-culture in complete medium with MSC pretreated with 1 μM) | Specific DNA fragmentation in H9c2 (anti-apoptotic effect of MSC) ([5]; protocol 3: H9c2 350 μM H2O2 4 h, serum deprivation 1 h, then co-culture in complete medium with MSC pretreated with 1 μM) |
| --- | --- | --- | --- | --- | --- | --- | --- | --- | --- | --- |
| Cc1cc(SCc2sc(-c3ccc(C(F)(F)F)cc3)nc2C)ccc1OCC(=O)O [GW501516] | caused cancer to develop rapidly in several organs | 37.4 % of LV mass | 52.8 | 54.5 | 36.05 | caused cancer to develop rapidly in several organs | protect the cardiomyoblast cell line H9c2 from H2O2-induced cell death | – | – | – |
| O=C(NCCS(=O)(=O)c1ccc(C(F)(F)F)cn1)c1ccc(Cl)cc1 [GSK3787] | – | – | – | – | – | – | – | lose their capacity to protect cardiomyocytes from apoptosis | did not change MSC protective properties | lose their capacity to protect cardiomyocytes from apoptosis |
